Measurements: article PMC6968775, “Assessment of contribution of BCRP to intestinal absorption of various drugs using portal‐systemic blood concentration difference model in mice” (Pharmacology Research & Perspectives, 2020)

Columns and labels:
[1] = Pharmacokinetics after iv and oral administration, P‐S difference method, Mdr1a/1b(−/−) mice; format: in vivo
Procedure: (§1) Male Mdr1a/1b(−/−) and Bcrp(−/−) mice, and WT mice of the same genetic background (FVB) were obtained from Taconic Farms (Germantown, NY, USA). […] Food and water were available ad libitum. All experiments were carried out in accordance with the principles and procedures outlined in the National Institutes of Health Guide for the Care and Use of Laboratory.
(§2) All the mice were fasted overnight with free access to tap water. In the intravenous administration studies, model compounds were administered via the tail vein at doses of 1 mg/kg (n = 3). Following administration, blood samples were collected from the abdominal vein of the anesthetized mice at 0.083, 0.17, 0.5, 1, 2, 4, and 8 hours. […] Following administration, blood samples were taken from the portal and abdominal veins of the anesthetized mice at 0.083, 0.17, 0.5, 1, 2, 4, and 8 hours. The plasma samples were separated by centrifugation at 14 000g for 10 minutes at 4°C and stored at −30°C until analysis.
(§3) After organic layer was evaporated at 60°C, the resultant residues were dissolved in a mobile phase. For the determination of topotecan and sulfasalazine, plasma samples were mixed with acetonitrile, centrifuged at 750 g for 10 minutes at 4°C, and the supernatants were collected. After the evaporation of the supernatants, the residues were dissolved in a mobile phase, and acidified with phosphoric acid for topotecan. All drugs were analyzed by HPLC system (Shimadzu LC‐10AS pump, Shimadzu SIL‐10A autosampler) equipped with a reverse‐phase column (COSMOSIL 5C18‐AR‐II, 3.5‐μm […], 4.6 × 150 mm).
(§4) Elimination rate constant (k e) was determined by the least squares regression analysis of plasma concentration vs time curve. Elimination half‐life (t 1/2) was calculated using Eq.1:(1) t1/2=ln2/ke
(§5) Area under plasma concentration‐time curve (AUC) and area under the first moment curve (AUMC) from time 0 to infinity were calculated by trapezoidal rule.
(§6) Absorption rate constant (k a) after oral administration was calculated by the nonlinear least squares fitting with program MULTI.12
(§7) BA was calculated by Eq.5:(7) BA=AUCoral/AUCiv×Doseiv/Doseoral×100 where AUCoral is AUC after oral administration. Doseiv and Doseoral are administered dose in the intravenous and oral administration study, respectively.
(§8) Hepatic availability (F h) was calculated by Eq.6:(8) Fh=F/Fa×Fg

P‐gp [2] = settings: Caco‐2 permeability study; unpublished data; ref Fujita et al, manuscript in preparation; cited from earlier work
[3] = Blood/plasma concentration ratio (R b) in fresh whole blood; format: in vitro ADME, FVB mice; settings: fresh whole blood, FVB mouse whole blood, 37°C
Procedure: Similarly, the model compounds were added to plasma, and reference blood samples were obtained according to the same procedure. These concentrations of drugs in each sample were analyzed using HPLC (C B and C P, respectively). R b value was calculated by dividing C B by C P.

[4] = human; cited from earlier work
P‐gp [5] = settings: in vivo (mice); calculated from F a F g in WT, Bcrp(−/−) and Mdr1a/1b(−/−) mice (Eq. 12)
[6] = Pharmacokinetics after iv and oral administration, P‐S difference method, wild‐type mice; format: in vivo
Procedure: as §1, §2, §3, §4, §5, §6, §7, §8

[7] = Pharmacokinetics after iv and oral administration, P‐S difference method, Bcrp(−/−) mice; format: in vivo
Procedure: as §1, §2, §3, §4, §5, §6, §7, §8

[8] = Mdr1a/1b(−/−) mice, p.o. (ciprofloxacin 1, nitrofurantoin 2, topotecan 1, sulfasalazine 5 mg/kg)
[9] = male, Mdr1a/1b(−/−) (FVB background), mouse, systemic plasma (abdominal vein), po
[10] = wild‐type mice, p.o. (ciprofloxacin 1, nitrofurantoin 2, topotecan 1, sulfasalazine 5 mg/kg)
[11] = wild‐type mice, p.o. (ciprofloxacin 1, nitrofurantoin 2, topotecan 1, sulfasalazine 5 mg/kg), systemic (sys) plasma
[12] = Bcrp(−/−) mice, p.o. (ciprofloxacin 1, nitrofurantoin 2, topotecan 1, sulfasalazine 5 mg/kg)
[13] = Bcrp(−/−) mice, p.o. (ciprofloxacin 1, nitrofurantoin 2, topotecan 1, sulfasalazine 5 mg/kg), systemic (sys) plasma

- F h [1, 8]: 55.6%
- k a [1, 8]: 0.93 h⁻¹
- BA ([1]; Mdr1a/1b(−/−) mice, p.o. (ciprofloxacin 1, nitrofurantoin 2, topotecan 1, sulfasalazine 5 mg/kg) vs iv 1 mg/kg): 11.5%
- F a F g ([1]; Mdr1a/1b(−/−) mice, p.o. (ciprofloxacin 1, nitrofurantoin 2, topotecan 1, sulfasalazine 5 mg/kg), P‐S difference method): 30%
- k a, P‐gp ([1]; Table 5 summary, Mdr1a/1b(−/−) mice, oral administration): 0.93
- (F a F g)P‐gp ([1]; as fraction, Mdr1a/1b(−/−) mice, oral administration): 0.30
- clearance ([1]; male, FVB Mdr1a/1b(−/−), mouse, plasma (systemic, abdominal vein), Mdr1a/1b(−/−) mice, iv 1 mg/kg, read-out: CL tot (converted)): 0.59 L/h/kg
- Vd ([1]; male, FVB Mdr1a/1b(−/−), mouse, plasma (systemic, abdominal vein), Mdr1a/1b(−/−) mice, iv 1 mg/kg, read-out: Vdss): 0.45 L/kg
- half-life ([1]; male, Mdr1a/1b(−/−) (FVB background), mouse, plasma, Mdr1a/1b(−/−) mice, iv 1 mg/kg): 1.63 h
- AUC(0-inf) ([1]; male, Mdr1a/1b(−/−) (FVB background), mouse, plasma, Mdr1a/1b(−/−) mice, iv 1 mg/kg, read-out: AUC 0→∞): 4.28 µM·h
- Tmax ([1]; male, Mdr1a/1b(−/−) (FVB background), mouse, portal vein plasma, po): 0.17 h
- Tmax [1, 9]: 0.5 h
- half-life [1, 9]: 1.11 h
- blood plasma ratio at 15 min, 1 µg/mL [3]: 1.28 ± 0.03
- R P‐gp (rate of P‐gp contribution) (P‐gp [5]): 0.09
- k a, wt ([6]; Table 5 summary, WT mice, oral administration): 1.40
- C0 ([6]; male, FVB (wild-type), mouse, plasma (systemic, abdominal vein), WT mice, intravenous injection 1 mg/kg, read-out: extrapolated plasma concentration at zero time (C 0)): 11.7 µM
- clearance ([6]; male, FVB (wild-type), mouse, plasma (systemic, abdominal vein), wild‐type mice, iv 1 mg/kg, read-out: CL tot (converted)): 0.66 L/h/kg
- Vd ([6]; male, FVB (wild-type), mouse, plasma (systemic, abdominal vein), wild‐type mice, iv 1 mg/kg, read-out: Vdss): 0.59 L/kg
- half-life ([6]; male, FVB (wild-type), mouse, plasma, iv, 1 mg/kg, wild‐type mice, iv 1 mg/kg): 1.95 h
- AUC(0-inf) ([6]; male, FVB (wild-type), mouse, plasma, iv, 1 mg/kg, wild‐type mice, iv 1 mg/kg, read-out: AUC 0→∞): 3.82 µM·h
- Tmax ([6]; male, FVB (wild-type), mouse, portal vein plasma, po): 0.17 h
- AUC(0-inf) ([6]; male, FVB (wild-type), mouse, portal vein plasma, po, wild‐type mice, p.o. (ciprofloxacin 1, nitrofurantoin 2, topotecan 1, sulfasalazine 5 mg/kg), portal vein (pv) plasma, read-out: AUC 0→∞ (AUCpv)): 2.2 µM·h
- Tmax ([6]; male, FVB (wild-type), mouse, systemic plasma (abdominal vein), po): 0.5 h
- half-life ([6]; male, FVB (wild-type), mouse, systemic plasma (abdominal vein), po, wild‐type mice, p.o. (ciprofloxacin 1, nitrofurantoin 2, topotecan 1, sulfasalazine 5 mg/kg), systemic (sys) plasma): 1 h
- AUC(0-inf) ([6]; male, FVB (wild-type), mouse, systemic plasma (abdominal vein), po, wild‐type mice, p.o. (ciprofloxacin 1, nitrofurantoin 2, topotecan 1, sulfasalazine 5 mg/kg), systemic (sys) plasma, read-out: AUC 0→∞ (AUCsys)): 1.94 µM·h
- F h [6, 10]: 60.1%
- k a [6, 10]: 1.40 h⁻¹
- BA ([6]; wild‐type mice, p.o. (ciprofloxacin 1, nitrofurantoin 2, topotecan 1, sulfasalazine 5 mg/kg) vs iv 1 mg/kg): 10.2%
- F a F g ([6]; wild‐type mice, p.o. (ciprofloxacin 1, nitrofurantoin 2, topotecan 1, sulfasalazine 5 mg/kg), P‐S difference method): 16.9%
- AUC 0→∞ (AUCpv) ([6]; wild‐type mice, p.o. (ciprofloxacin 1, nitrofurantoin 2, topotecan 1, sulfasalazine 5 mg/kg), portal vein (pv) plasma): 2.2 µM·h
- AUC 0→∞ (AUCsys) [6, 11]: 1.94 µM·h
- t 1/2 [6, 11]: 1.11 h
- F h [7, 12]: 73.2%
- k a [7, 12]: 0.49 h⁻¹
- BA ([7]; Bcrp(−/−) mice, p.o. (ciprofloxacin 1, nitrofurantoin 2, topotecan 1, sulfasalazine 5 mg/kg) vs iv 1 mg/kg): 95.2%
- AUC 0→∞ (AUCpv) ([7]; Bcrp(−/−) mice, p.o. (ciprofloxacin 1, nitrofurantoin 2, topotecan 1, sulfasalazine 5 mg/kg), portal vein (pv) plasma): 290 000 nmol/L·h
- AUC 0→∞ (AUCsys) [7, 13]: 288 000 nmol/L·h
- t 1/2 [7, 13]: 7.07 h
- k a, bcrp ([7]; Table 5 summary, Bcrp(−/−) mice, oral administration): 0.49
- (F a F g)bcrp ([7]; as fraction, Bcrp(−/−) mice, oral administration): 1.30
- half-life ([7]; male, Bcrp(−/−) (FVB background), mouse, plasma, iv, 1 mg/kg, Bcrp(−/−) mice, iv 1 mg/kg): 3.57 h
- Tmax ([7]; male, Bcrp(−/−) (FVB background), mouse, portal vein plasma, po): 2 h
- Tmax ([7]; male, Bcrp(−/−) (FVB background), mouse, systemic plasma (abdominal vein), po): 2 h
- AUC(0-inf) ([7]; male, FVB Bcrp(−/−), mouse, plasma (systemic, abdominal vein), iv, 1 mg/kg, Bcrp(−/−) mice, iv 1 mg/kg, read-out: AUC 0→∞): 60.5 µM·h
- C0 ([7]; male, FVB Bcrp(−/−), mouse, plasma (systemic, abdominal vein), Bcrp(−/−) mice, intravenous injection 1 mg/kg, read-out: extrapolated plasma concentration at zero time (C 0)): 18.1 µM
- clearance ([7]; male, FVB Bcrp(−/−), mouse, plasma (systemic, abdominal vein), Bcrp(−/−) mice, iv 1 mg/kg, read-out: CL tot (converted)): 0.04 L/h/kg
- Vd ([7]; male, FVB Bcrp(−/−), mouse, plasma (systemic, abdominal vein), Bcrp(−/−) mice, iv 1 mg/kg, read-out: Vdss): 0.19 L/kg
- AUC(0-inf) ([7]; male, FVB Bcrp(−/−), mouse, portal vein plasma, po, Bcrp(−/−) mice, p.o. (ciprofloxacin 1, nitrofurantoin 2, topotecan 1, sulfasalazine 5 mg/kg), portal vein (pv) plasma, read-out: AUC 0→∞ (AUCpv)): 290 µM·h
- half-life ([7]; male, FVB Bcrp(−/−), mouse, systemic plasma (abdominal vein), po, Bcrp(−/−) mice, p.o. (ciprofloxacin 1, nitrofurantoin 2, topotecan 1, sulfasalazine 5 mg/kg), systemic (sys) plasma): 7 h
- AUC(0-inf) ([7]; male, FVB Bcrp(−/−), mouse, systemic plasma (abdominal vein), po, Bcrp(−/−) mice, p.o. (ciprofloxacin 1, nitrofurantoin 2, topotecan 1, sulfasalazine 5 mg/kg), systemic (sys) plasma, read-out: AUC 0→∞ (AUCsys)): 288 µM·h
- AUC pv and AUC sys after oral administration, Bcrp(−/−) mice vs WT mice ([7]; oral administration): more than 130 fold
Structure (SMILES): O=C(O)c1cc(/N=N/c2ccc(S(=O)(=O)Nc3ccccn3)cc2)ccc1O [sulfasalazine, Sulfasalazine]
- AQp‐gp in vitro (Caco‐2) (P‐gp [2]): 0.05
- AUC after oral administration, patients heterozygous variant for the BCRP SNP vs normal BCRP [4]: approximately 2 fold
- human BA [4]: < 15%
- human F a F g [4]: 12%
